US9974305B2, “Fungicidal or bactericidal composition, and method for controlling diseases” (NISSAN CHEMICAL INDUSTRIES, LTD., priority 2014, dated 2018)
Like-named read-outs stand apart in the source and are kept apart here.

Tests used:
[1] = tested on: wheat glume blotch (Leptosphaeria nodorum); test: Efficacy test on wheat glume blotch, spray treatment and prevention test (Test Example 8); assay type: in vivo; details: spray, lesion area ratio
Description: An agent comprising the following compound listed in Table 2 (active ingredient A) and the following compound listed in Table 6, Table 11 or Table 15 (active ingredient B) as active ingredients, was prepared in accordance with the above Formulation Example. This agent was diluted with water to a predetermined concentration to obtain a test solution. Then, to seedlings of wheat (variety: Haruyutaka) at the 1-leaf stage, seeded in a pot with a diameter of 7 cm, with 5 seeds per pot, and grown for 7 days, the test solution was applied by a spray gun in an amount of 5 ml per pot, for treatment. One day after the treatment, a spore suspension (1×100,000 cfu/ml) of wheat glume blotch (Leptosphaeria nodorum) was spray-inoculated, and the pot was placed in a moist chamber set in temperature of 20° C. and humidity more than 95% RH for 48 hours. After placing the pot in a glass greenhouse for 7 days, the ratio of the formed lesion area occupying the inoculated leaves was measured, and the preventive value was calculated in accordance with the following formula. Preventive value=[1−(treated plot lesion area ratio/untreated plot lesion area ratio)]×100
Further, from the preventive value for each agent concentration, synergy was calculated by using the Colby method (Colby S. R. 1976, Weeds 15, 20-22).

[2] = tested on: cucumber gray mold fungus (Botrytis cinerea); test: Preventive test against gray mold on cucumber cotyledon leaves, spray treatment, preventive value and Colby expected value (Test Examples 1-4); assay type: in vivo; details: single compound; for pest or weed control at 50 ppm / pest or weed control at 10 ppm / pest or weed control at 5 ppm / pest or weed control at 8 ppm / pest or weed control at 100 ppm / pest or weed control at 25 ppm / pest or weed control at 3 ppm / pest or weed control at 35 ppm: Botrytis cinerea, 72 h; for pest or weed control at 8 ppm: 8 ppm spray; for pest or weed control at 25 ppm: 25 ppm spray; for pest or weed control at 3 ppm: 3 ppm spray; for pest or weed control at 35 ppm: 35 ppm spray
Description: Using the following compound listed in Table 2 (the active ingredient A) and the compound listed in Table 5 through Table 15 (active ingredient B), an agent was prepared in accordance with the above Formulation Example. This agent was diluted with water to a predetermined concentration to obtain a test solution. Then, cucumber (variety: Sagami-hanjiro) was planted in a plastic pot of 90 cm^3, and in the cotyledon stage, 5 ml of the obtained test solution, was sprayed by a spray gun and air-dried. Thereafter, the treated leaf was cut off and placed in a plastic container which filled approximately 0.5 cm in depth water. A suspension of conidia of cucumber gray mold fungus (Botrytis cinerea) and a dissolved PDA culture medium were mixed at a ratio of 1:1 (mass ratio), and the mixture was dropped to inoculate the treated leaf with 30 μl. After the inoculation, the plastic container was sealed and left at 20° C. for 3 days, the ratio of the formed lesion occupying the inoculated leaf was measured, and the preventive value was calculated in accordance with the following calculation formula. Preventive value=[1−(treated plot lesion area ratio/untreated plot lesion area ratio)]×100
Further, from the preventive value at each agent concentration, synergy was calculated by using the Colby method (Colby S. R. 1976, Weeds 15, 20-22). The calculation method is as follows. E=X+Y−XY/100
X: preventive value of A agent at x concentration
Y: preventive value of B agent at y concentration
E: theoretical value expected by treatment of the mixture of A agent and B agent.
The obtained result is analyzed to be synergy if the observed value is larger than the expected value, to be antagonism if the expected value is larger than the observed value, and to be an additive effect if the observed value and the expected value are the same.
Using the following compound listed in Table 2 (active ingredient A) and the following compound listed in Table 5 through Table 15 (active ingredient B) as active ingredients, a preventive test against gray mold was conducted in accordance with the method described in Test Example 1.
Using the following compound listed in Table 2 (active ingredient A) and the following compound listed in Table 5 or Table 6 (active ingredient B) as active ingredients, a preventive test against gray mold was conducted in accordance with the method described in Test Example 1.
Using the following compound listed in Table 2 (active ingredient A) and the following compound listed in Table 6 through Table 16 (active ingredient B) as active ingredients, a preventive test against gray mold was conducted in accordance with the method described in Test Example 1.

[3] = Test Example 1, 50 ppm spray, read-out: Preventive value
[4] = Test Example 2, 50 ppm spray, read-out: Preventive value
[5] = Test Example 4, 10 ppm spray, read-out: Preventive value
[6] = Test Example 4, 50 ppm spray, read-out: Preventive value
[7] = Test Example 4, 100 ppm spray, read-out: Preventive value
[8] = Test Example 1, read-out: Preventive value
[9] = Test Example 2, read-out: Preventive value

N#CC(CCc1ccc(Cl)cc1)(Cn1cncn1)c1ccccc1 (stereo not drawn) [H13, fenbuconazole]
pest or weed control at 25 ppm ([1]; Parastagonospora nodorum, single compound 25 ppm, read-out: Preventive value): 50% | pest or weed control at 50 ppm [2, 3]: 63% | pest or weed control at 50 ppm [2, 4]: 60%

C[Si](Cn1cncn1)(c1ccc(F)cc1)c1ccc(F)cc1 [H16, flusilazole]
pest or weed control at 10 ppm [2, 5]: 50%

CC(C)CC(C)c1sccc1NC(=O)c1cn(C)nc1C(F)(F)F (stereo not drawn) [C15, penthiopyrad]
pest or weed control at 5 ppm ([2]; Test Example 3, 5 ppm spray): 60%

O=C(NCCc1ncc(C(F)(F)F)cc1Cl)c1ccccc1C(F)(F)F [C06, fluopyram]
pest or weed control at 5 ppm ([2]; Test Example 3, 5 ppm spray): 63%

Cn1cc(C(=O)Nc2ccccc2C2CC2C2CC2)c(C(F)F)n1 (stereo not drawn) [C16, sedaxane]
Preventive value ([2]; Test Example 3, 10 ppm spray): 50

CC#Cc1cc(C)nc(Nc2ccccc2)n1 [D2, mepanipyrim]
pest or weed control at 8 ppm ([2]; Test Example 1): 55% | pest or weed control at 8 ppm ([2]; Test Example 2): 56%

CCOc1ccc(NC(=O)OC(C)C)cc1OCC [B06, diethofencarb]
pest or weed control at 50 ppm ([2]; read-out: Preventive value, Test Example 3, 50 ppm spray): 45%

CCCC(Cn1cncn1)c1ccc(Cl)cc1Cl (stereo not drawn) [H28, penconazole]
pest or weed control at 10 ppm [2, 5]: 45%

CO/N=C(/C(=O)OC)c1ccccc1COc1ccccc1C [C28, kresoxim-methyl]
pest or weed control at 5 ppm ([1]; Parastagonospora nodorum, single compound 5 ppm, read-out: Preventive value): 45% | pest or weed control at 10 ppm ([2]; Test Example 1, 10 ppm spray, read-out: Preventive value): 45% | pest or weed control at 10 ppm ([2]; Test Example 2, 10 ppm spray, read-out: Preventive value): 56%

O=[N+]([O-])c1cc(C(F)(F)F)c(Cl)c([N+](=O)[O-])c1Nc1ncc(C(F)(F)F)cc1Cl [C43, fluazinam]
pest or weed control at 50 ppm [2, 6]: 45%

Cc1cc(C2CC2)nc(Nc2ccccc2)n1 [D1, cyprodinil]
pest or weed control at 50 ppm [2, 6]: 50%

CNC(=O)C(OC)c1ccccc1COc1cc(C)ccc1C (stereo not drawn) [C29, mandestrobin, reference compound]
Preventive value ([1]; single compound 10 ppm): 50 | Preventive value ([2]; Test Example 4, 10 ppm spray): 45

CNC(=O)/C(=N/OC)c1ccccc1CO/N=C(C)/C(=N/OC)C(/C)=N/OC [C31, orysastrobin]
Preventive value ([2]; Test Example 4, 50 ppm spray): 40

mancozeb [L16]
Preventive value ([2]; Test Example 4, 100 ppm spray): 45

COC(=O)NC(=S)Nc1ccccc1NC(=S)NC(=O)OC [B05, thiophanate-methyl]
pest or weed control at 10 ppm ([2]; Test Example 3, 10 ppm spray, read-out: Preventive value): 60%

Cc1ccccc1C(=O)Nc1cccc(OC(C)C)c1 [C12, mepronil]
pest or weed control at 10 ppm ([2]; read-out: Preventive value, Test Example 3, 10 ppm spray): 60%

O=C(Cc1ccccc1)N/C(=N\OCC1CC1)c1c(C(F)(F)F)ccc(F)c1F [M01, cyflufenamid]
pest or weed control at 100 ppm [2, 7]: 15%

CC1(C(=O)Nc2ccc(O)c(Cl)c2Cl)CCCCC1 [H49, fenhexamid]
pest or weed control at 25 ppm ([2]; Test Example 1): 30% | pest or weed control at 25 ppm ([2]; Test Example 2): 25%

Fc1ccc([C@]2(Cn3cncn3)O[C@H]2c2ccccc2Cl)cc1 (racemic) [Compound No. H10, epoxiconazole]
Preventive value ([1]; single compound 1 ppm): 50 | Preventive value ([2]; Test Example 1, 10 ppm spray): 60 | Preventive value ([2]; Test Example 2, 10 ppm spray): 50

N#Cc1c(Cl)c(Cl)c(Cl)c(C#N)c1Cl [L25, chlorothalonil]
pest or weed control at 50 ppm ([1]; Parastagonospora nodorum, single compound 50 ppm, read-out: Preventive value): 50% | pest or weed control at 50 ppm [2, 3]: 50% | pest or weed control at 50 ppm [2, 4]: 55%

N#Cc1c[nH]cc1-c1cccc2c1OC(F)(F)O2 [Compound No. E04, fludioxonil]
pest or weed control at 3 ppm ([2]; read-out: Preventive value, Test Example 1): 60% | pest or weed control at 3 ppm ([2]; read-out: Preventive value, Test Example 2): 58%

CCCCNC(=O)n1c(NC(=O)OC)nc2ccccc21 [B01, benomyl]
pest or weed control at 3 ppm [2, 8]: 50% | pest or weed control at 3 ppm [2, 9]: 45%

CC12CC1(C)C(=O)N(c1cc(Cl)cc(Cl)c1)C2=O (stereo not drawn) [F02, procymidone]
pest or weed control at 10 ppm [2, 5]: 55%

CC(C)NC(=O)N1CC(=O)N(c2cc(Cl)cc(Cl)c2)C1=O [Compound No. F01, iprodione]
pest or weed control at 35 ppm ([2]; Test Example 1): 50% | pest or weed control at 35 ppm ([2]; Test Example 2): 48%

Cn1cc(C(=O)Nc2ccc(F)cc2-c2ccc(Cl)c(Cl)c2)c(C(F)F)n1 [C02, bixafen]
Preventive value ([2]; Test Example 3, 50 ppm spray): 70

Cn1cc(C(=O)Nc2ccccc2-c2cc(F)c(F)c(F)c2)c(C(F)F)n1 [C08, fluxapyroxad]
Preventive value ([2]; Test Example 3, 1 ppm spray): 65

O=c1c2cc(F)ccc2nc(-n2cncn2)n1-c1ccc(Cl)cc1Cl [H15, fluquinconazole]
pest or weed control at 10 ppm [2, 5]: 55%

CC(Cc1ccc(C(C)(C)C)cc1)CN1C[C@@H](C)O[C@@H](C)C1 (stereo partly drawn) [H45, fenpropimorph]
pest or weed control at 100 ppm [2, 7]: 10%

Cc1nn(C)c(Cl)c1C(=O)Nc1cccc2c1C(C)OC2(C)C (stereo not drawn) [C09, furametpyr]
Preventive value ([2]; Test Example 3, 100 ppm spray): 55

Cc1nn(C)c(F)c1C(=O)Nc1ccccc1C(C)CC(C)C (stereo not drawn) [C14, penflufen]
Preventive value ([2]; Test Example 3, 100 ppm spray): 65

COc1cc(Cl)c(OC)cc1Cl [G06, chloroneb]
pest or weed control at 100 ppm ([2]; read-out: Preventive value, Test Example 4, 100 ppm spray): 35%

C[C@@]1(c2ccc(Oc3ccccc3)cc2)OC(=O)N(Nc2ccccc2)C1=O (racemic) [C23, famoxadone]
pest or weed control at 100 ppm [2, 7]: 35%

Cn1cc(C(=O)Nc2cccc3c2[C@@H]2CC[C@H]3C2=C(Cl)Cl)c(C(F)F)n1 (racemic) [C01, benzovindiflupyr]
Preventive value ([2]; Test Example 3, 5 ppm spray): 60

FC(F)C(F)(F)OCC(Cn1cncn1)c1ccc(Cl)cc1Cl (stereo not drawn) [H36, tetraconazole]
pest or weed control at 10 ppm [2, 5]: 55%

OC(c1ccc(Cl)cc1)(c1cncnc1)c1ccccc1Cl (stereo not drawn) [H12, fenarimol]
pest or weed control at 10 ppm [2, 5]: 55%

O=C1c2ccccc2C(=O)N1SC(Cl)(Cl)Cl [L24, folpet]
pest or weed control at 100 ppm [2, 7]: 45%

CC1COC(Cn2cncn2)(c2ccc(Oc3ccc(Cl)cc3)cc2Cl)O1 (stereo not drawn) [H07, difenoconazole]
pest or weed control at 10 ppm [2, 5]: 50%

Fc1ccc(Oc2ccnc3cc(Cl)cc(Cl)c23)cc1 [E02, quinoxyfen]
pest or weed control at 100 ppm [2, 7]: 5%

COc1cc(C)c(C(=O)c2c(OC)ccc(Br)c2C)c(OC)c1OC [M09, metrafenone]
pest or weed control at 100 ppm [2, 7]: 5%

CC(Cc1ccc(C(C)(C)C)cc1)CN1CCCCC1 (stereo not drawn) [H44, fenpropidin]
pest or weed control at 100 ppm [2, 7]: 35%

CC(C)Oc1cccc(NC(=O)c2ccccc2C(F)(F)F)c1 [C07, flutolanil]
pest or weed control at 100 ppm ([2]; Test Example 3, 100 ppm spray, read-out: Preventive value): 50%

Cc1cc(OC(C)C)ccc1C(=O)C(C)(C)NC(=O)c1sccc1C [C10, isofetamid]
Preventive value ([2]; Test Example 3, 5 ppm spray): 45

CC(C1CC1)C(O)(Cn1cncn1)c1ccc(Cl)cc1 (stereo not drawn) [H05, cyproconazole]
pest or weed control at 10 ppm [2, 5]: 45%

O=C(Nc1ccccc1-c1ccc(Cl)cc1)c1cccnc1Cl [C03, boscalid]
pest or weed control at 3 ppm [2, 8]: 60% | pest or weed control at 3 ppm [2, 9]: 58%

OC(Cn1cncn1)(c1ccc(F)cc1)c1ccccc1F (stereo not drawn) [H17, flutriafol]
pest or weed control at 10 ppm [2, 5]: 45%
